Test results as given in patent US9850218B2, “Thiazole compounds, compositions and methods for treatment of degenerative diseases and disorders” (MUSC FOUNDATION FOR RESEARCH DEVELOPMENT, priority 2013, dated 2017).

What was measured:
661W or C6 cells [1] = test: XF FCCP-uncoupled oxygen consumption rate assay (IBMX treatment); assay type: cell-based; conditions: for activity at 1 µM: 1 uM compound
Protocol: The XF FCCP-uncoupled oxygen consumption rate assay assesses mitochondrial capacity by measuring cellular respiration. It was shown that the maximum FCCP-uncoupled oxygen consumption rate (OCR) was a good estimate of maximal mitochondrial capacity (Beeson 2010) and that IBMX treatment of 661W or C6 cells for 24 h caused a loss in maximal uncoupled OCR (Perron 2013). Thus, cells were pretreated with the exemplified compounds for 1 h, added 600 μM IBMX and then measured the uncoupled rate after 24 h. The OCR measurements were performed using a Seahorse Bioscience XF instrument (Seahorse Bioscience, Billerica, Md.), as previously published (Perron 2013). O2 leakage through the plastic sides and bottom of the plate was accounted for using the AKOS algorithm in the XF software package. Cells were plated on 96- or 24-well custom plates designed for use in the XF and grown to confluency in DMEM+5% FBS (48 h). The medium was then replaced with DMEM+1% FBS for 24 h, along with any treatments.

661W or C6 cells [2] = test: MTT assay: protection against calcium-ionophore A23187; assay type: cell-based; conditions: for viability at 0.1 µM: 100 nM compound; for viability at 1 µM: 1 μM compound; for viability at 0.0008 µM: 800 pM compound; for viability at 0.5 µM: 500 nM compound
Protocol: The compound 3-(4,5-Dimethylthiazol-2-yl)-2,5-diphenyltetrazolium bromide (MTT) is a tetrazolium ion that is reduced to a blue formazan dye via several families of NAD(P)H-dependent oxidoreductases. Formation of the formazan dye from MTT or other related tetrazolium dyes are commonly used as a viability assay even though, in fact, the assay is a metabolic capacity assay.
In this assay, 661W or C6 cells were maintained in DMEM supplemented with 10% FBS. 100 μl, of 70,000 cells/mL cells were seeded into each well of 96 well plates using DMEM supplemented with 5% FBS. Cells were then allowed to grow to confluency for 48 hours. The compounds of the invention were added in 2 μL media and calcium-ionophore A23187 was then added in 1 μL for a final concentration of 1 μM and after 24 h, 20 uL of 2 μg/mL MTT were added to each well and the cells were incubated for another 4 h after which 100 μL of 1% SDS in 0.01 M aqueous HCl were added to each well and the plates were incubated overnight. Absorbance was measured at 640 and 570 nM (background correction). The 1 μM ionophore A23187 caused about 50% loss in MTT signal at 24 h. Protection was calculated as the increase in absorbance of treatment groups normalized to the vehicle control.

[3] = 1 μM A23187, 24 h, read-out: MTT Protection (%, concentration)
[4] = 1 h pretreatment, 600 μM IBMX, 24 h, read-out: XF FCCP OCR (% Ctrl, concentration)

| Compound | viability at 0.1 µM (661W or C6 cells [2]; [3]) | activity at 1 µM (661W or C6 cells [1]; [4]) | further results |
| --- | --- | --- | --- |
| CC(C)Cn1c(=O)n(C)c(=O)c2[nH]cnc21 [IBMX, reference compound] | – | – | decrease in the uncoupled rate (661W or C6 cells [1]; IBMX treatment alone (600 μM, 24 h)): ~50% |
| COCCN(C)C(=O)c1sc(-c2ccccc2)nc1-c1ccccc1 [Example 6, N-(2-methoxyethyl)-N-methyl-2,4-diphenylthiazole-5-carboxamide] | 78.4% | 81% | – |
| O=C(Nc1ccccc1)c1sc(-c2ccccc2)nc1-c1ccccc1 [Example 3, N,2,4-Triphenylthiazole-5-carboxamide] | – | 72% | viability at 1 µM (661W or C6 cells [2]; [3]): 47% |
| O=C(Nc1ccc(F)cc1)c1sc(-c2ccccc2)nc1-c1ccccc1 [Example 4, N-(4-fluorophenyl)-2,4-diphenylthiazole-5-carboxamide] | 64.1% | 83% | – |
| CCOC(=O)c1sc(-c2ccc(OC)cc2)nc1-c1ccccc1 [Example 5, Ethyl 2-(4-methoxyphenyl)-4-phenylthiazole-5-carboxylate] | 69% | 82% | – |
| CCOC(=O)c1sc(-c2ccccc2)nc1-c1ccccc1 [Example 1, Ethyl 2,4-diphenylthiazole-5-carboxylate] | 48% | 71% | – |
| O=C(O)c1sc(-c2ccccc2)nc1-c1ccccc1 [Example 2, 2,4-Diphenylthiazole-5-carboxylic acid] | 40% | 77% | – |
| CCOC(=O)c1sc(-c2ccccn2)nc1-c1ccccc1 [Example 7, Ethyl 4-phenyl-2-(pyridin-2-yl)thiazole-5-carboxylate] | – | 75% | viability at 1 µM (661W or C6 cells [2]; [3]): 88% |
| COc1ccc(NC(=O)c2sc(-c3ccccc3)nc2-c2ccccc2)cc1 [Example 8, N-(4-methoxyphenyl)-2,4-diphenylthiazole-5-carboxamide] | – | 73% | viability at 0.0008 µM (661W or C6 cells [2]; [3]): 67.3% |
| CCOC(=O)c1sc(-c2ccncc2)nc1-c1ccccc1 [Example 10, Ethyl 4-phenyl-2-(pyridin-4-yl)thiazole-5-carboxylate] | – | 70% | viability at 0.5 µM (661W or C6 cells [2]; [3]): 88% |
| O=C(Nc1ccccc1Nc1ccccc1)c1sc(-c2ccccn2)nc1-c1ccccc1 [Example 12, 4-Phenyl-N-(2-(phenylamino)phenyl)-2-(pyridin-2-yl)thiazole-5-carboxamide] | – | 71% | viability at 0.0008 µM (661W or C6 cells [2]; [3]): 57.2% |
| CNc1ccc2oc(C[C@H]3O[C@@]4(CC[C@H]3C)O[C@H]([C@H](C)C(=O)c3ccc[nH]3)[C@H](C)C[C@H]4C)nc2c1C(=O)O [Example A23187, reference compound] | – | – | loss in MTT signal (661W or C6 cells [2]; 1 μM ionophore A23187 alone, at 24 h): about 50% |
| O=C(O)c1sc(-c2ccccn2)nc1-c1ccccc1 [Example 11, 4-Phenyl-2-(pyridin-2-yl)thiazole-5-carboxylic acid] | – | 76% | viability at 0.5 µM (661W or C6 cells [2]; [3]): 71.7% |
| CCOC(=O)c1sc(-c2ccccc2)nc1-c1ccccn1 [Example 9, Ethyl 2-phenyl-4-(pyridin-2-yl)thiazole-5-carboxylate] | – | – | viability at 10 µM (661W or C6 cells [2]; 10 μM compound, 1 μM A23187, 24 h, read-out: MTT Protection (%, concentration)): 98%; activity at 10 µM (661W or C6 cells [1]; 10 uM compound, 1 h pretreatment, 600 μM IBMX, 24 h, read-out: XF FCCP OCR (% Ctrl, concentration)): 71% |
